Source: the kinase profiling compilation of Christmann-Franck et al. (2016)

Columns and labels:
PLK2 (human) = PLK2 (human) (UniProt Q9NYY3); assay: IMAP-FP
EIF2AK2 (human) = EIF2AK2 (human) (UniProt P19525); assay: IMAP-FP
PKN1 (human) = PKN1 (human) (UniProt Q16512); assay: IMAP-FP
EIF2AK3 (human) = EIF2AK3 (human) (UniProt Q9NZJ5); assay: IMAP-FP
SRPK1 (human) = SRPK1 (human) (UniProt Q96SB4); assay: IMAP-FP
DAPK1 (human) = DAPK1 (human) (UniProt P53355); assay: Caliper, Mobility shift assay off-chip
EPHB2 (human) = EPHB2 (human) (UniProt P29323); assay: Caliper, Mobility shift assay off-chip
Sequence of EPHB2 (human) (P29323 whole entry, looked up): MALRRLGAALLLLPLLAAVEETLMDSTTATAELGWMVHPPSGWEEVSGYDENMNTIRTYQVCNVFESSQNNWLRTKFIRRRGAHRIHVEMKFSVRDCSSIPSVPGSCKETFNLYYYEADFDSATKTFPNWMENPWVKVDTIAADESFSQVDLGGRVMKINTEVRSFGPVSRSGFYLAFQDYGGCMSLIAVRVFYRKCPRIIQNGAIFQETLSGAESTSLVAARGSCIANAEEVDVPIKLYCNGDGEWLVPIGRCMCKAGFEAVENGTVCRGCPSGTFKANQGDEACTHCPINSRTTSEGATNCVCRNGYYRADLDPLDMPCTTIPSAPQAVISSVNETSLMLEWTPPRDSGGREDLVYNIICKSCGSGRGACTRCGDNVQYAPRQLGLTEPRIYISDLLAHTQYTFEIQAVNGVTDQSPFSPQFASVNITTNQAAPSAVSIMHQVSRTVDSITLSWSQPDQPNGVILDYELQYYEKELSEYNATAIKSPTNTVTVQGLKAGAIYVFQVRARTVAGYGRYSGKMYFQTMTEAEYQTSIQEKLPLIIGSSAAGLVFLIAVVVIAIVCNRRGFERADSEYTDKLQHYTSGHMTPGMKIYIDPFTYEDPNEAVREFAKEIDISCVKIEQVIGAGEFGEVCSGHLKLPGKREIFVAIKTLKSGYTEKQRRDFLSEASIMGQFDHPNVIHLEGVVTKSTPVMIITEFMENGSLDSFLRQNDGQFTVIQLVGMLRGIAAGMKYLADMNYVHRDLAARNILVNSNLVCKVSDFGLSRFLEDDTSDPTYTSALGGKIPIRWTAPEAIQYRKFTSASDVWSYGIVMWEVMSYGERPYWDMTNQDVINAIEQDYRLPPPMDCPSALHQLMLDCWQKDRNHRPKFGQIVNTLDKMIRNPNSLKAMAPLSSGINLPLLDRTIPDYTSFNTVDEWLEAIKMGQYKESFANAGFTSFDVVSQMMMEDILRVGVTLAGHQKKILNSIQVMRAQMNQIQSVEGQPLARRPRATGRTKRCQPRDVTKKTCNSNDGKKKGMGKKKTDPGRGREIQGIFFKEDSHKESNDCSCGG

EPHB3 (human) = EPHB3 (human) (UniProt P54753); assay: Caliper, Mobility shift assay off-chip
BLK (human) = BLK (human) (UniProt P51451); assay: Caliper, Mobility shift assay off-chip
STK24 (human) = STK24 (human) (UniProt Q9Y6E0); assay: Caliper, Mobility shift assay off-chip
CHEK1 (human) = CHEK1 (human) (UniProt O14757); assay: Caliper, Mobility shift assay off-chip
MET (human) = MET (human) (UniProt P08581); assay: Caliper, Mobility shift assay off-chip
CHUK (human) = CHUK (human) (UniProt O15111); assay: Caliper, Mobility shift assay off-chip
Sequence of CHUK (human) (O15111 whole entry, looked up): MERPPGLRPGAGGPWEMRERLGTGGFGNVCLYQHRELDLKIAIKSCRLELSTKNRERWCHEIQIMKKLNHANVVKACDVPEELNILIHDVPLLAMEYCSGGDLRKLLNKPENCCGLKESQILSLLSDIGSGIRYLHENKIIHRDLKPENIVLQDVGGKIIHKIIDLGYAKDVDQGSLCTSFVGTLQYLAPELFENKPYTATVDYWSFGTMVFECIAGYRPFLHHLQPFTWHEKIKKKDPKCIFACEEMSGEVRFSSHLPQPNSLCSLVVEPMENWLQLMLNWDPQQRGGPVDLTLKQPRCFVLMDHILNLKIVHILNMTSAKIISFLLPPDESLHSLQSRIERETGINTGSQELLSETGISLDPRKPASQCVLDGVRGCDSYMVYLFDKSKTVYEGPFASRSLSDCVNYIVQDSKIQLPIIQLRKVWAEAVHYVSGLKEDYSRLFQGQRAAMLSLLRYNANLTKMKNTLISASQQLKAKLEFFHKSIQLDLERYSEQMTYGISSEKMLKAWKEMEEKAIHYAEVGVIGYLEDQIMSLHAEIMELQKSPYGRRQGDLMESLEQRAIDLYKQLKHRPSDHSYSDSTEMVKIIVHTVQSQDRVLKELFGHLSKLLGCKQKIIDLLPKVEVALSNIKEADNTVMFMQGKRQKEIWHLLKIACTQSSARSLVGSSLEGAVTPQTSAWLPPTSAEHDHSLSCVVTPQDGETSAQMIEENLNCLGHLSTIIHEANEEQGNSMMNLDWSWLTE

WNK3 (human) = WNK3 (human) (UniProt Q9BYP7); assay: Caliper, Mobility shift assay off-chip
NIM1 (human) = NIM1 (human) (UniProt Q8IY84); assay: Caliper, Mobility shift assay off-chip
FRK (human) = FRK (human) (UniProt P42685); assay: Caliper, Mobility shift assay off-chip; conditions: compound 0.2 µM
MINK1 (human) = MINK1 (human) (UniProt Q8N4C8); assay: Caliper, Mobility shift assay off-chip
CSK (human) = CSK (human) (UniProt P41240); assay: Caliper, Mobility shift assay off-chip
Sequence of CSK (human) (P41240 whole entry, looked up): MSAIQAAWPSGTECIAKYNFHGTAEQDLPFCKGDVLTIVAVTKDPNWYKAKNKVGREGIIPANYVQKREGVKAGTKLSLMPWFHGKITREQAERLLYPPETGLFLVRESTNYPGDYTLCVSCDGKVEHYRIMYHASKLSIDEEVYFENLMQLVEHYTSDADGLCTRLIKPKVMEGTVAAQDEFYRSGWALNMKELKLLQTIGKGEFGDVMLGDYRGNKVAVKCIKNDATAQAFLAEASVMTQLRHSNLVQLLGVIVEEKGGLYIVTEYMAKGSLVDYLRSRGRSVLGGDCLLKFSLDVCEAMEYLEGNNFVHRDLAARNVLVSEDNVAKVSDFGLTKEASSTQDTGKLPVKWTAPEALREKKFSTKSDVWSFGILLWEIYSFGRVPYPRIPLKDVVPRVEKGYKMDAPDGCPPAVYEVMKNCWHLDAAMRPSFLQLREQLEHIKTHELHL

EPHA1 (human) = EPHA1 (human) (UniProt P21709); assay: Caliper, Mobility shift assay off-chip
PRKCI (human) = PRKCI (human) (UniProt P41743); assay: Caliper, Mobility shift assay off-chip
MAPKAPK5 (human) = MAPKAPK5 (human) (UniProt Q8IW41); assay: Caliper, Mobility shift assay off-chip
PRKX (human) = PRKX (human) (UniProt P51817); assay: Caliper, Mobility shift assay off-chip
IKBKB (human) = IKBKB (human) (UniProt O14920); assay: Caliper, Mobility shift assay off-chip
FGFR1 (human) = FGFR1 (human) (UniProt P11362); assay: Caliper, Mobility shift assay off-chip
DYRK1A (human) = DYRK1A (human) (UniProt Q13627); assay: Caliper, Mobility shift assay off-chip
FGR (human) = FGR (human) (UniProt P09769); assay: Caliper, Mobility shift assay off-chip; conditions: compound 0.2 µM
CDK4 (human) = CDK4 (human) (UniProt P11802); assay: Caliper, Mobility shift assay off-chip
KIT (human) = KIT (human) (UniProt P10721); assay: Caliper, Mobility shift assay off-chip
PRKCG (human) = PRKCG (human) (UniProt P05129); assay: Caliper, Mobility shift assay off-chip
ERBB4 (human) = ERBB4 (human) (UniProt Q15303); assay: Caliper, Mobility shift assay off-chip
Sequence of ERBB4 (human) (Q15303 whole entry, looked up): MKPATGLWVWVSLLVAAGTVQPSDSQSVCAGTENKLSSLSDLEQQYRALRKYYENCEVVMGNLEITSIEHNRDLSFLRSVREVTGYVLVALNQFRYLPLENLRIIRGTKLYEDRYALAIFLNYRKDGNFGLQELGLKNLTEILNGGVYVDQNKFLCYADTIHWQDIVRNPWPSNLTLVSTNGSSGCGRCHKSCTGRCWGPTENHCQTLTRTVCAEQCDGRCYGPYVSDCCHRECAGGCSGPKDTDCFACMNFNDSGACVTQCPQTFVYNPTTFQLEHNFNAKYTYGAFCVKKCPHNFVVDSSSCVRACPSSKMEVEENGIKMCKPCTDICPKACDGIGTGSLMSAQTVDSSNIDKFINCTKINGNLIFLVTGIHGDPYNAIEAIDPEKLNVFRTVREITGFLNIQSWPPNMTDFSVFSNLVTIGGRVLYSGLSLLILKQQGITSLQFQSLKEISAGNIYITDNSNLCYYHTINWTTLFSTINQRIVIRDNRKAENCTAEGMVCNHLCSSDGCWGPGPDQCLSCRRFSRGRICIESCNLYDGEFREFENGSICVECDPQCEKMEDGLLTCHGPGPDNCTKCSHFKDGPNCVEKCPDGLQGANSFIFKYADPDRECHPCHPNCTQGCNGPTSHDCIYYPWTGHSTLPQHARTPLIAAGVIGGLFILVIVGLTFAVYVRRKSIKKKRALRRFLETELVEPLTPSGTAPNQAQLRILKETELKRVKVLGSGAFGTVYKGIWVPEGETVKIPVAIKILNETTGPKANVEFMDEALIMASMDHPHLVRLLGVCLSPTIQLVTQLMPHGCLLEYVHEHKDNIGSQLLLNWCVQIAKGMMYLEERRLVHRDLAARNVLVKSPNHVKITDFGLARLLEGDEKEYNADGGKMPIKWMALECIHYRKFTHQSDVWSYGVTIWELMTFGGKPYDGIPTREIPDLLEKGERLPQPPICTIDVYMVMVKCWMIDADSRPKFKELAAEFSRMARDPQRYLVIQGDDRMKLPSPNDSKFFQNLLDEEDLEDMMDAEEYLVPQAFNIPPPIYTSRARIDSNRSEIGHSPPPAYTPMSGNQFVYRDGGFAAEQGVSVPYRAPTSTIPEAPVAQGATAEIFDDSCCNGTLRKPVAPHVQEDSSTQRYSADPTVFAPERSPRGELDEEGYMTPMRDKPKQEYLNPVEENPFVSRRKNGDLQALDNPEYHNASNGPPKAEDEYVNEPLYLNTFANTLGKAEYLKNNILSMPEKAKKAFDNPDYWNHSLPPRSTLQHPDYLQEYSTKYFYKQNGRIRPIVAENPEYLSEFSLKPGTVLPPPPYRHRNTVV

GSK3B (human) = GSK3B (human) (UniProt P49841); assay: Caliper, Mobility shift assay off-chip
Sequence of GSK3B (human) (P49841 whole entry, looked up): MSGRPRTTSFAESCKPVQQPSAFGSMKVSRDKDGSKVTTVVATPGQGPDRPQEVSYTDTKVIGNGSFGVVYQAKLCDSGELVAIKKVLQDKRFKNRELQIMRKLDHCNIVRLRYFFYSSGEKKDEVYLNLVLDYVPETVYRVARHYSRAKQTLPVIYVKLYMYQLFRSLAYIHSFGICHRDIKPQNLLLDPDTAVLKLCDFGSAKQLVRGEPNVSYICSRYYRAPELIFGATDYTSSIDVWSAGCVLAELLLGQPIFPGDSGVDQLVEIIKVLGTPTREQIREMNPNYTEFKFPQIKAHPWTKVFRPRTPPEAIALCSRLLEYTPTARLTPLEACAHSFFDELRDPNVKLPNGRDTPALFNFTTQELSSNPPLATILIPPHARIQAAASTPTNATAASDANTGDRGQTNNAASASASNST

PDPK1 (human) = PDPK1 (human) (UniProt O15530); assay: Caliper, Mobility shift assay off-chip
BRSK2 (human) = BRSK2 (human) (UniProt Q8IWQ3); assay: Caliper, Mobility shift assay off-chip

Sequence of EIF2AK3 (human) (Q9NZJ5 whole entry, looked up): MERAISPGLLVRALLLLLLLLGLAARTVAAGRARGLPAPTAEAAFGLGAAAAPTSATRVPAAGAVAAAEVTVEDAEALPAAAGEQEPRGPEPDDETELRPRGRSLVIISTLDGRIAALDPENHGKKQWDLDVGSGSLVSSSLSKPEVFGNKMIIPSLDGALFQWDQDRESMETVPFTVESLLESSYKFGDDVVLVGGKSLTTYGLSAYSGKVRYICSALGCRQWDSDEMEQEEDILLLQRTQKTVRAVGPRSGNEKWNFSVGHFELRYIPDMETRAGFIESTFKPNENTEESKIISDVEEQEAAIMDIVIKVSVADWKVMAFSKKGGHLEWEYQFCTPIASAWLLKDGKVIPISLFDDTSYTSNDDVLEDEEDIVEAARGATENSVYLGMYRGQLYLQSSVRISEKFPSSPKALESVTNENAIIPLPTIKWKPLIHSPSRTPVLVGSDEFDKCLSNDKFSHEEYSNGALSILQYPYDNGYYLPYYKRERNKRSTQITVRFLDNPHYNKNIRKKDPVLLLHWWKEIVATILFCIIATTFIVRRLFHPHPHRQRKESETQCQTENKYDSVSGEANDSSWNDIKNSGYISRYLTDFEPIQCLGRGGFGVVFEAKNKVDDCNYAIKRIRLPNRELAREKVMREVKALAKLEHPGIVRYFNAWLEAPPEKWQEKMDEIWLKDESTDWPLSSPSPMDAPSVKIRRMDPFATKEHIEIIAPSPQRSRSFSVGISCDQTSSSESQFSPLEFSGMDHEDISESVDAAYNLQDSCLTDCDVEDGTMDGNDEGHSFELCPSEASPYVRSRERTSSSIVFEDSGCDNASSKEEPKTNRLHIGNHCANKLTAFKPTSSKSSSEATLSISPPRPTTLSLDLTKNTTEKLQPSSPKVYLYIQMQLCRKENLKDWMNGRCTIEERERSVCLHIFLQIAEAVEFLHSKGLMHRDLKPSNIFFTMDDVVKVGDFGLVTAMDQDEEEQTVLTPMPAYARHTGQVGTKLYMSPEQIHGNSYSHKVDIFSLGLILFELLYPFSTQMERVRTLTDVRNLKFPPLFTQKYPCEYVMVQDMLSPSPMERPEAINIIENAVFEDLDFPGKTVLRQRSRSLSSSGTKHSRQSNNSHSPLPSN

Question: For `CCN(CC)CCNC(=O)c1c(C)[nH]c(/C=C2\C(=O)Nc3ccc(F)cc32)c1C`, which inhibition (PLK2 (human); compound 0.2 µM) is on record?
Answer: The inhibition was -4.7%.

Question: And the inhibition (PLK2 (human); compound 4.0 µM)?
Answer: The inhibition was 4.2%.

Question: And the inhibition (EIF2AK2 (human); compound 0.2 µM)?
Answer: The inhibition was 29.1%.

Question: And the inhibition (EIF2AK2 (human); compound 4.0 µM)?
Answer: Its inhibition is 88.4%.

Question: And the inhibition (PKN1 (human); compound 0.2 µM)?
Answer: The inhibition was -2.2%.

Question: And the inhibition (PKN1 (human); compound 4.0 µM)?
Answer: Its inhibition is 57.1%.

Question: And the inhibition (EIF2AK3 (human); compound 0.2 µM)?
Answer: The inhibition was -15%.

Question: And the inhibition (EIF2AK3 (human); compound 4.0 µM)?
Answer: Its inhibition is -5.4%.

Question: What about the inhibition (SRPK1 (human); compound 0.2 µM) of the same molecule?
Answer: The inhibition was -0.7%.

Question: What about the inhibition (SRPK1 (human); compound 4.0 µM) of the same molecule?
Answer: Its inhibition is 39.6%.

Question: What about the inhibition (DAPK1 (human); compound 0.2 µM) of the same molecule?
Answer: Its inhibition is 64.4%.

Question: What about the inhibition (DAPK1 (human); compound 4.0 µM) of the same molecule?
Answer: The inhibition was 98.7%.

Question: What about the inhibition (EPHB2 (human); compound 0.2 µM) of the same molecule?
Answer: The inhibition was 22.2%.

Question: What about the inhibition (EPHB2 (human); compound 4.0 µM) of the same molecule?
Answer: The inhibition was 79.1%.

Question: What about the inhibition (EPHB3 (human); compound 0.2 µM) of the same molecule?
Answer: The inhibition was -1.7%.

Question: What about the inhibition (EPHB3 (human); compound 4.0 µM) of the same molecule?
Answer: Its inhibition is 15.3%.

Question: What about the inhibition (BLK (human); compound 0.2 µM) of the same molecule?
Answer: The inhibition was 79.2%.

Question: What about the inhibition (BLK (human); compound 4.0 µM) of the same molecule?
Answer: Its inhibition is 101%.

Question: What about the inhibition (STK24 (human); compound 0.2 µM) of the same molecule?
Answer: Its inhibition is 47.8%.

Question: What about the inhibition (STK24 (human); compound 4.0 µM) of the same molecule?
Answer: Its inhibition is 95.7%.

Question: What about the inhibition (CHEK1 (human); compound 0.2 µM) of the same molecule?
Answer: Its inhibition is 59.3%.

Question: And the inhibition (CHEK1 (human); compound 4.0 µM)?
Answer: The inhibition was 95.2%.

Question: What about the inhibition (MET (human); compound 0.2 µM) of the same molecule?
Answer: The inhibition was 9%.

Question: And the inhibition (MET (human); compound 4.0 µM)?
Answer: Its inhibition is 65.3%.

Question: And the inhibition (CHUK (human); compound 0.2 µM)?
Answer: Its inhibition is 3%.

Question: What about the inhibition (CHUK (human); compound 4.0 µM) of the same molecule?
Answer: Its inhibition is 2.9%.

Question: And the inhibition (WNK3 (human); compound 0.2 µM)?
Answer: Its inhibition is 1.8%.

Question: And the inhibition (WNK3 (human); compound 4.0 µM)?
Answer: Its inhibition is 2.4%.

Question: What about the inhibition (NIM1 (human); compound 0.2 µM) of the same molecule?
Answer: Its inhibition is 17.9%.

Question: And the inhibition (NIM1 (human); compound 4.0 µM)?
Answer: The inhibition was 67.1%.

Question: What about the inhibition (FRK (human)) of the same molecule?
Answer: The inhibition was 29.7%.

Question: And the inhibition (MINK1 (human); compound 0.2 µM)?
Answer: Its inhibition is 56.6%.

Question: What about the inhibition (MINK1 (human); compound 4.0 µM) of the same molecule?
Answer: Its inhibition is 99.7%.

Question: And the inhibition (CSK (human); compound 0.2 µM)?
Answer: The inhibition was 1.2%.

Question: And the inhibition (CSK (human); compound 4.0 µM)?
Answer: Its inhibition is 17.6%.

Question: What about the inhibition (EPHA1 (human); compound 0.2 µM) of the same molecule?
Answer: Its inhibition is 8.2%.

Question: And the inhibition (EPHA1 (human); compound 4.0 µM)?
Answer: The inhibition was 66.9%.

Question: And the inhibition (PRKCI (human); compound 0.2 µM)?
Answer: The inhibition was -2%.

Question: And the inhibition (PRKCI (human); compound 4.0 µM)?
Answer: The inhibition was 7.8%.

Question: What about the inhibition (MAPKAPK5 (human); compound 0.2 µM) of the same molecule?
Answer: The inhibition was 6%.

Question: What about the inhibition (MAPKAPK5 (human); compound 4.0 µM) of the same molecule?
Answer: Its inhibition is 45.2%.

Question: What about the inhibition (PRKX (human); compound 0.2 µM) of the same molecule?
Answer: The inhibition was 7.7%.

Question: What about the inhibition (PRKX (human); compound 4.0 µM) of the same molecule?
Answer: Its inhibition is 66.3%.

Question: And the inhibition (IKBKB (human); compound 0.2 µM)?
Answer: The inhibition was -2.1%.

Question: And the inhibition (IKBKB (human); compound 4.0 µM)?
Answer: The inhibition was 4.2%.

Question: What about the inhibition (FGFR1 (human); compound 0.2 µM) of the same molecule?
Answer: The inhibition was 52.9%.

Question: And the inhibition (FGFR1 (human); compound 4.0 µM)?
Answer: The inhibition was 96.2%.

Question: And the inhibition (DYRK1A (human); compound 0.2 µM)?
Answer: Its inhibition is 23%.

Question: What about the inhibition (DYRK1A (human); compound 4.0 µM) of the same molecule?
Answer: Its inhibition is 82.1%.

Question: And the inhibition (FGR (human))?
Answer: Its inhibition is 63.4%.

Question: What about the inhibition (CDK4 (human); compound 0.2 µM) of the same molecule?
Answer: Its inhibition is 16.6%.

Question: And the inhibition (CDK4 (human); compound 4.0 µM)?
Answer: Its inhibition is 62.5%.

Question: And the inhibition (KIT (human); compound 0.2 µM)?
Answer: Its inhibition is 76.7%.

Question: What about the inhibition (KIT (human); compound 4.0 µM) of the same molecule?
Answer: The inhibition was 100%.

Question: And the inhibition (PRKCG (human); compound 0.2 µM)?
Answer: Its inhibition is 0.1%.

Question: And the inhibition (PRKCG (human); compound 4.0 µM)?
Answer: The inhibition was 38.9%.

Question: And the inhibition (ERBB4 (human); compound 0.2 µM)?
Answer: The inhibition was -0.9%.

Question: And the inhibition (ERBB4 (human); compound 4.0 µM)?
Answer: The inhibition was 33.9%.

Question: What about the inhibition (GSK3B (human); compound 0.2 µM) of the same molecule?
Answer: The inhibition was 1.1%.

Question: And the inhibition (GSK3B (human); compound 4.0 µM)?
Answer: The inhibition was 23.7%.

Question: What about the inhibition (PDPK1 (human); compound 0.2 µM) of the same molecule?
Answer: The inhibition was -0.3%.

Question: And the inhibition (PDPK1 (human); compound 4.0 µM)?
Answer: The inhibition was 36.5%.

Question: What about the inhibition (BRSK2 (human); compound 0.2 µM) of the same molecule?
Answer: Its inhibition is 36.7%.

Question: And the inhibition (BRSK2 (human); compound 4.0 µM)?
Answer: The inhibition was 85.9%.
